From ChEMBL document CHEMBL1134866, “Design, synthesis, and biological evaluation of novel, centrally-acting thyrotropin-releasing hormone analogues” (2002)

test system: Mus musculus; experiment: Compound was intravenously injected into Swiss Webstar mice tail vein, the sleeping time was recorded as the time elapsed from the loss of righting reflex; type: functional

Compound	Sleeping time [min]
NC(=O)C1=CN(CCC(NC(=O)[C@@H]2CCC(=O)N2)C(=O)N2CCC[C@H]2C(N)=O)C=CC1 (some centres undefined)	~45
NC(=O)C1=CN(CCC[C@H](NC(=O)[C@@H]2CCC(=O)N2)C(=O)N2CCC[C@H]2C(N)=O)C=CC1	~59
NC(=O)C1=CN(CCCCC(NC(=O)[C@@H]2CCC(=O)N2)C(=O)N2CCC[C@H]2C(N)=O)C=CC1 (some centres undefined)	~47
NC(=O)C1=CN(C[C@H](NC(=O)[C@@H]2CCC(=O)N2)C(=O)N2CCC[C@H]2C(N)=O)C=CC1	19.3
